Experimental data published in a melting point compilation (Tetko et al.; mined from patent text by program, amines drawn as free bases though some values may be those of a salt).

| melting point [°C] | Structure (SMILES) |
| --- | --- |
| 86 to 88 | Cc1cc(N)ccc1-c1ccc(-c2ccc(N)cc2C)s1 |
| 128 to 130 | Cc1ccc(-c2ccccc2C(N)=O)cc1 |
| 89 to 91 | CCN(CC)C(=O)c1ccc(C)c(-c2nc(NCCNC(C)C)nc3c2CNC(=O)N3c2c(F)cccc2F)c1 |
| 117 to 118 | Cc1nc(C)c(C(=O)Nc2cccc3c2C(C)CC3(C)C)s1 (stereo not drawn) |
| 96 to 97 | CCOC(=O)NC(C)C(=O)c1ccc2cc(OC)ccc2c1 (single isomer, unassigned; (+)) |
| 74 to 75 | COC(=O)CCc1oc(C)nc1-c1ccc(Cl)cc1 |
| 270 to 271 | O=C(Nc1ccc(O)c(C(=O)O)c1)c1ccc([N+](=O)[O-])cc1 |
| 77 to 78 | CC(C(=O)CCc1ccc(Cl)cc1)n1cncn1 (stereo not drawn) |
| 176 to 178 | CCc1oc2ccccc2c1C(=O)N(C)Cc1ccc2c(Br)c(O)ccc2c1 |
| 102 to 105 | CCOC(=O)C1=C(C)NC(c2ccccc2)=NC1c1ccccc1[N+](=O)[O-] (stereo not drawn) |
| 126 to 128 | CCOc1ccc(-n2cccc2-c2ccc(S(N)(=O)=O)cc2)cc1 |
| 160 to 163 | Cc1c(-c2ccccc2)oc2c(S(=O)(=O)CCCCl)cccc2c1=O |
| 189 to 193 | O=c1oc(-c2ccc(F)cc2)nc2cccc(F)c12 |
| 58 to 60 | CC(=O)C[C@H]1CC[C@H](c2ccc(Cl)cc2)CC1 |
| 172 to 173 | COc1ccc(C(=O)c2ccc(O)cc2)c(OC(C)(C)C(=O)OC(C)(C)C)c1 |
| 195 to 196 | COC(=O)c1ccc(-c2nc(-c3ccc(C(C)(C)C)cc3)no2)c(N)c1 |
| 186 to 188 | Cc1ccc(-c2ccc(Cl)cc2)cc1C1C(=O)COC(C)(C)C1=O (stereo not drawn) |
| 147 to 150 | CC(=O)Oc1ccc(-c2c3ccccc3cc3sc(C)c(C)c23)cc1 |

| melting point [°C] | Structure (SMILES) |
| --- | --- |
| 154 to 156 | CCN1c2ncc(Br)cc2C(=O)N(C)c2ccc(F)nc21 |
| 135 to 138 | C=C=COc1ccc(-c2ccc(OC=C=C)cc2)cc1 |
| 108 to 109 | CCOC(=O)c1cnn(Cc2ccc(OCc3nc(-c4ccccc4)oc3C)cc2)c1 |
| > 250 | COc1cccc(-c2cc(F)c3c(c2)CC(CN)O3)c1 (stereo not drawn) |
| 260 | Cn1cnnc1C(CCl)(c1ccc(Cl)cc1)c1ccc2c(c1)c(-c1cccc(Cl)c1)cc(=O)n2C (stereo not drawn) |
| 269 to 271 | O=C1CCC(N2Cc3cc(CNC(=O)Nc4cc(Cl)ccc4Cl)ccc3C2=O)C(=O)N1 (stereo not drawn) |
| 235 | CC(C)(C)C1=NN(c2ccc(C(=O)O)cc2)C(c2cccc([N+](=O)[O-])c2)C1 (stereo not drawn) |
| 173 | COc1ccc(S(=O)(=O)n2c(=O)n(-c3cccc(Cl)c3)c3cc(Cl)ccc32)c(OC)c1 |
| 95.5 to 101 | Cc1ccncc1CN1CCC(=C2c3ccc(Cl)cc3CCc3cccnc32)CC1 |
| 169 to 170 | NS(=O)(=O)c1ccc(-c2cc3cccccc-3c2-c2ccccc2)cc1 |
| 205 to 207 | Cc1ccc(C2=Cc3cc(C(=O)N[C@H]4CC[C@H](CN(C)C5CCOCC5)CC4)ccc3OC2)cc1 |
| 256 to 257 | O=C(C=Cc1ccc(Cl)cc1)NC1CCCNC(=O)C1 (stereo not drawn) |
| 156 to 157 | Cc1ccccc1Cc1ccc(=O)[nH]n1 |
| 220 to 225 | Cc1ccc(-c2cc(NC(=O)C3Cc4ccccc4C3)n[nH]2)cc1 |
| 151 to 153 | COc1ccc(-c2cnc(-c3ccc(Cl)cc3)nc2-c2ccc(OC)cc2)cc1 |
| 191 to 193 | CC(=O)c1cc2c(s1)CCC1CC(=O)N(c3ccc(C)cc3)N=C21 (stereo not drawn) |
| 178 to 180 | COc1ccc(-c2c[nH]c(-c3nc(-c4ccco4)c(C(=O)C4CCOCC4)s3)n2)cc1 |

Further lines, the compound ahead of its results:

| Structure (SMILES) | melting point [°C] |
| --- | --- |
| COc1cc2c3c(n(CCCNS(=O)(=O)c4ccccc4)c(=O)c2cc1OC)-c1ccccc1C3=O | 249 to 250 |
| CCCN(CCC)C(=O)Cn1c(=O)[nH]c2cnc(-c3ccccc3)nc21 | 190 to 191 |
| CC(C)(C)c1cc(OC[Si](C)(C)Cc2ccccc2)cc(C(C)(C)C)c1O | 76 to 77 |
| Cc1c(-c2ccccc2)n[nH]c1OCN1CCCC1 | 88 |
| CCCCC[C@@H](C)C[C@H](CN)CC(=O)O | 174 to 175 |
| CC(C)(C)OC(=O)NC(Cc1ccccc1)C(O)C(Cc1ccccc1)NC(=O)[C@H](CC(N)=O)NC(=O)OCc1ccccc1 (stereo partly drawn) | 216 to 217 |
| O=c1c(-c2cc[nH]n2)coc2ccccc12 | 141 to 142 |
| CC1SC(c2cccnc2)N(c2ccccc2F)C1=O (stereo not drawn) | 112 |
| CCCCCC(=O)c1c(CBr)nc2cc(OC)c(OC)cc2c1-c1ccc(OC)c(OC)c1 | 146 to 147 |
| CCOC(=O)Cn1c(C(=O)NCc2nnc(C)n2-c2sc(CC)cc2C(=O)c2ccccc2Cl)cc2ccccc21 | 138 to 140 |
| CN(C)c1ccc(NC(=O)N(Cc2ccccc2)C[C@H]2CCC[C@H](CN(Cc3ccccc3)C(=O)Nc3ccc(N(C)C)cc3)C2)cc1 (relative stereo) | 129 to 133 |
| O=C(OCCS(=O)(=O)CCCOCCc1ccccc1)c1ccccc1 | 65.5 |
| CCc1nn(-c2ccc(F)cc2)c2c1C(C)N(C)C2=O (stereo not drawn) | 65 |
| COc1cc(COc2cc(C=O)n(-c3ccccc3)n2)ccc1OCc1nc(-c2ccco2)oc1C | 103 to 104 |
| C=COCCN1C(=O)CN(C)C1=O | 54 to 56 |
| CCCc1c(O)ccc(C(=O)OCc2ccccc2)c1O | 86 to 88 |
| COC(=O)CCC/C(C)=C/c1cccc2c1NCCNC2=O | 175 to 176 |
| O=C(Cn1c(=O)sc2ccc(Cl)cc21)N1CCC(O)CC1 | 180 |
| O=c1c(O)c(-c2ccc3c(c2)OC(c2ccccc2)(c2ccccc2)O3)oc2cc(O)cc(O)c12 | 239 to 240 |
| CCCCOc1cc(/C=C(\OCC)C(=O)O)ccc1OCCc1ccc(OS(=O)(=O)CCCC)cc1OC | 90 |
| CC(=O)NNc1ccc(NC(=S)Nc2ccccc2)cc1 | 205 to 207 |

| Structure (SMILES) | melting point [°C] |
| --- | --- |
| CCOc1nn(-c2ccc(C(F)(F)F)cn2)cc1CCCOc1cc(CC(=O)O)n(C)n1 | 151 to 152 |
| CN(CCCNC(=O)COc1nc2ccccc2s1)Cc1ccc(Cl)c(Cl)c1 | 113 to 115 |
| NS(=O)(=O)c1ccc(-n2nc(C(F)F)cc2-c2nc3ccccc3s2)cc1 | 247 to 249 |
| C1=C(c2ccncc2)CCC2(C1)OCCO2 | 67 to 70 |
| O=C(Nc1ccc2c(c1)nc1n2CCC1)c1cc2cc(C(F)(F)F)cnc2n1Cc1ccccc1 | 268 to 270 |
| COc1ccc2c(c1)S(=O)(=O)C(C(=O)NCCCCCC(=O)O)C(=O)N2C (stereo not drawn) | 110 to 112 |
| CC(=O)CC(=O)c1ccc(OCCCN2CCCCC2)cc1 | 43 to 45.5 |
| COc1cc(F)c(-c2nn(C)c(C(F)(F)F)c2Cl)cc1[N+](=O)[O-] | 116 |
| O=Cc1cc(O)c2c(c1)C(=O)c1cccc(O)c1C2=O | 198 to 200 |
| O=C(CC1(c2ccc(OCc3ccc4ccccc4n3)cc2)CCCC1)NS(=O)(=O)Cc1ccccc1 | 171 |
| COc1ccc(SC2CC(=O)N2)cc1OC (stereo not drawn) | 145 to 146 |
| CCCC1(C(=O)NCCCCCO)c2ccccc2-c2ccccc21 | 48 to 51 |
| CCS(=O)(=O)Nc1c(C)c(C)cc2nc(OC)c(OC)nc12 | 201 to 203 |
| Cn1c(COc2cccc(N)c2)nc2ccccc21 | 149 to 153 |
| CCCCCCCCCCCCCCCCC(C)(C)C(=O)O | 50 to 53 |
| COc1cc2ccc([C@](O)(c3c[nH]cn3)C(C)C)cc2cc1OC | 156 to 157 |
| Cn1cc(C(=O)OCC23CCCN(CC2)C3)c2ccccc21 (stereo not drawn) | 94.5 to 96.5 |
| CC(C)(C)OC(=O)[C@@H]1CS[C@H](c2ccccc2F)N1C(=O)CNC(=O)Nc1cccc(CC(=O)O)c1 | 110 |
| COC(=O)CC[C@@H](NC(=O)[C@H](CO)NC(=O)OC(C)(C)C)C(=O)OC | 90 to 92 |
| COC(=O)C1CC(=O)n2c3c(c4cc(F)ccc42)CCNC31 (stereo not drawn) | 172 |
| CCOC(=O)COc1ccc(C2=CC(=O)CCC2CC)c(Cl)c1Cl (stereo not drawn) | 110 to 112 |

| Structure (SMILES) | melting point [°C] |
| --- | --- |
| O=Cc1c2n(c3cc(Br)ccc13)CCNCC2 | 186 to 188 |
| COc1ccc(Nc2nc(-c3cc(-c4ccccc4)no3)cs2)nc1 | 203 to 205 |
| C=CCN1Cc2nc3c(cnn3C=C)c(N)c2C1=O | 190 to 191 |
| OCCn1c2ccccc2c2c(N3CCCC3)nc(N3CCCC3)nc21 | 110 |
| CN(C)/C=N/c1nc(=O)n(C(=O)NCc2ccccc2)cc1F | 147 to 150 |
| O=C1CN=C(c2ccccc2)c2cc(NO)ccc2N1 | 186 to 187 |
| COCCN(CCOC)c1ccc(NC(=O)Nc2ccc(Oc3ccncc3)cc2)cc1C(F)(F)F | 64.5 to 65 |
| CCCCCCC(=O)c1ccc2c(c1)CC(=O)O2 | 64 to 67 |
| COC(=O)c1ccc2c(c1)Sc1ccccc1N=C2 | 104 to 110 |
| CC(=O)NC1C(O)OC(COC(C)=O)C(O)(C(C)=O)C1OC(C)C(=O)O (stereo not drawn) | 85.8 to 90.8 |
| CCC1(C)CCNC1=O (stereo not drawn) | 39 to 40 |
| CC(=O)NCC1CN(c2ccc(N3CCN(c4nnc(C(F)(F)F)s4)CC3)c(F)c2)C(=O)O1 (stereo not drawn) | 255 to 257 |
| CCOCc1nc2c(N)nc3ccc(O)cc3c2n1CCCCN(C(N)=O)c1ccccc1 | 218 to 221 |
| COC(=O)c1cc2scc(Br)c2nc1C(=O)OC | 165 to 168 |
| COC(=O)c1cc(-c2ccc(S(C)(=O)=O)cc2)n(C2CCCCC2)n1 | 108 |
| O=C1OCCC1NC(c1ccccc1)(c1ccccc1)c1ccccc1 (stereo not drawn) | 164 to 166 |
| O=C(O)CCc1ccc(OCc2sc3ccccc3c2Cl)cc1 | 136 to 137 |
| CC(C)CNC(=O)C(O)C(CC1CCCCC1)NC(=O)C(Cc1c[nH]cn1)NC(=O)C(CC(=O)N1CCOCC1)Cc1cccc2ccccc12 (mixture of isomers) | 119 to 125 |
| CCn1c(=S)c2[nH]c(C(C)C)nc2n(Cc2ccc(OC)c(OC3CCCC3)c2)c1=O | 176 to 177 |
| CNC(=S)N1CCc2cc(S(=O)(=O)N3CC(c4ccccc4)NC3=O)ccc21 (stereo not drawn) | 217 to 219 |
| O=C(N[C@@H](CSc1ccccc1)[C@H]1CO1)OCc1ccccc1 | 61.7 |
